Measurements taken from patent publication US20230022200A1, “DRUG THAT PREVENTS DIALYSIS SHIFT OR RENAL DEATH” (Toray Industries, Inc., priority 2019, published 2023).
Like-named read-outs stand apart in the source and are kept apart here.

How the values were obtained:
[1] = system: patients with chronic renal failure; conditions: cited from earlier work
[2] = system: chronic renal failure rat models; conditions: combined use with ARBs and ACEIs; cited from earlier work
[3] = system: chronic renal failure patients with primary glomerular disease and nephrosclerosis as primary diseases; conditions: whole trial, serum creatinine 2.0 to 4.5 mg/dl at entry; 120 μg or 240 μg BPS administration group; cited from earlier work
[4] = system: cats with spontaneous chronic kidney disease; conditions: in vivo; cited from earlier work
[5] = system: chronic renal failure patients with primary glomerular disease and nephrosclerosis as primary diseases; conditions: twice a day for 6 months, cited from earlier work
renal failure model rats = conditions: rat, in vivo; cited from earlier work
[6] = system: chronic renal failure patients with primary glomerular disease and nephrosclerosis as primary diseases; assay: CASSIOPEIR trial: time to dialysis shift or renal death, hazard ratio of drug and placebo by Cox proportional hazard model; format: in vivo, human
Method: For the analysis, the full analysis set and Intention-To-Treat (ITT) defined in Nakamoto et al., BMC Nephrology were used, and the hazard ratio (HR) of the drug and placebo was calculated by the Cox proportional hazard model. A lower HR value indicates a higher effectiveness of the drug.
A data set obtained in the CASSIOPEIR trial according to the protocol described in Nakamoto et al., BMC Nephrology was used. Summarizing the protocol of the CASSIOPEIR trial, the targets are chronic renal failure patients with primary glomerular disease and nephrosclerosis as primary diseases, and a BPS sustained-release tablet, TRK-100STP (the same preparation as Careload (trademark) LA Tablets 60 μg (Toray Industries, Inc.)), is administered at 120 μg or 240 μg as BPS per day in two divided doses, morning and evening. Further, this trial was a multicenter, randomized, placebo-controlled, double-blind comparative trial, and carried out in Japan, China, South Korea, Taiwan, Hong Kong, Malaysia, and Thailand.
The duration of drug administration was 2 to 4 years, and the number of patients underwent randomization was 892, and the trial was conducted in 160 sites. Further, the ITT population was the primary analysis target population. The primary endpoint was the time to occurrence of the renal composite endpoint defined by doubling of serum creatinine or end-stage renal disease. The guidelines (2013) of the Japanese Society for Dialysis Therapy were used as a reference to determine the time to shift to dialysis. Specifically, according to the policy that “even with adequate conservative treatment, progressive deterioration of renal function is observed, and the need arises when GFR<15 ml/min/1.73 m^2. However, the introduction of actual blood dialysis is determined by comprehensively judging the symptoms of renal failure, activity in daily life, and nutritional status, and a decision is made when these cannot be avoided except by dialysis therapy,” and finally based on the judgment of the investigator, the time to shift to dialysis and the time to reach renal death were determined. The term “dialysis” as used herein includes peritoneal dialysis, in addition to blood dialysis.

[7] = cited from earlier work

## CC#CCC(C)[C@H](O)/C=C/[C@@H]1[C@H]2c3cccc(CCCC(=O)[O-])c3O[C@H]2C[C@H]1O.[Na+] (stereo partly drawn) [BPS, Beraprost sodium]
[1]; 20 μg per dose three times a day for 6 months
  slope of the time-varying straight line of the reciprocal of the serum creatinine level: becomes gentle
[1]; serum creatinine 1.9 mg/dl or less before start, 20 μg three times a day
  shift to dialysis: did not shift to dialysis for up to 54 months
[1]; serum creatinine 2.2 mg/dl or more (within the 1.9 to 2.8 mg/dl group)
  effect of BPS: not observed
[1]; serum creatinine 2.8 mg/dl or more before start, 20 μg three times a day
  time to shift to dialysis: ≤ 24 months
[2]
  effect of angiotensin inhibitors to suppress the progression of renal damage (increase in serum creatinine levels): enhances the effect of the angiotensin inhibitors
[3]
  renal composite endpoints and time to shift to dialysis: not minimized at all
[4]
  renal function: suppresses the decline in renal function
[5]; 120-μg group
  increase in serum creatinine level during the administration period compared to before the start of administration: 1.069 times
[5]; 240-μg group
  increase in serum creatinine level during the administration period compared to before the start of administration: 1.064 times
Renal failure model rats
  renal tissue damage: reduces renal tissue damage
  serum creatinine levels: suppresses the increase in serum creatinine levels
[6]; 240 μg per day, ACEI used in combination (except patients who further used ARB), all subjects, P value 0.0994
  HR, time to dialysis shift: 0.60
[6]; 240 μg per day, ACEI used in combination, Japanese patients, P value 0.0882
  HR, time to dialysis shift: 0.49
[6]; 240 μg, ARB in combination, no ACEI, Japanese partial population, P value 0.3597
  HR, time to dialysis shift: 0.79
[6]; 240 μg, ARB in combination, no ACEI, P value 0.5401
  HR, time to dialysis shift: 0.88
[6]; Japanese patients, BMI less than 23, 240 μg, P value 0.0048
  HR, dialysis shift: 0.38
[6]; Japanese patients, BMI less than 23 and serum albumin less than 3.8 g/dl
  HR, dialysis shift: 0.29
[6]; Japanese patients, serum albumin less than 3.8 g/dl, 240-μg administration, P value 0.1567
  HR, dialysis shift: 0.50
[6]; plasma BPS 50 pg/ml or more confirmed, eGFR 15 or more and less than 45 ml/min/1.73 m^2 (CKD stages 3b and 4), P value 0.0368
  HR, time to dialysis shift: 0.59
[6]; plasma BPS 50 pg/ml or more confirmed, serum creatinine less than 3 mg/dl, P value 0.0251
  HR, time to dialysis shift: 0.46
[7]; Shimamura et al.
  Cmax and AUC in renal damage patients compared to healthy subjects: elevated
[7]; in vivo
  half-life in blood: about 1 hour

## CC#CC[C@H](C)[C@H](O)/C=C/[C@@H]1[C@H]2c3cccc(CCCC(=O)[O-])c3O[C@H]2C[C@H]1O.[Na+] [BPS-314d, sodium (+)-(1R,2R,3aS,8b S)-2,3,3a,8b-tetrahydro-2-hydroxy-1-[(E)-(3S,4S)-3-hydroxy-4-methyl-1-octen-6-ynyl]-1H-cyclopenta[b]benzofuran-5-butyrate]
[7]; when BPS is administered to a human
  Cmax of BPS-314d in plasma relative to BPS: ¼
[7]; when BPS is administered
  AUC of BPS-314d in plasma relative to BPS: ¼
